One block for each molecule: values may come before it. Activity calls are given as the source filed them.
Assays:
HEK293 [1] = test: NOD1 signaling inhibitors, primary screen, cell-based, luminescence, uHTS (AID 1578); type: functional; settings: Homo sapiens
[2] = biological target: T1, RNA-binding protein pos-1 (Caenorhabditis elegans, UniProt G5EF15); test: inhibitors of POS-1/mex-3 RNA binding, dose response, biochemical, fluorescence polarization (AID 1964);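 further: purified POS-1 fused to maltose binding protein made in E. coli; potency of compounds blocking POS-1 binding to fluorescent RNA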
T1 sequence (G5EF15 whole entry): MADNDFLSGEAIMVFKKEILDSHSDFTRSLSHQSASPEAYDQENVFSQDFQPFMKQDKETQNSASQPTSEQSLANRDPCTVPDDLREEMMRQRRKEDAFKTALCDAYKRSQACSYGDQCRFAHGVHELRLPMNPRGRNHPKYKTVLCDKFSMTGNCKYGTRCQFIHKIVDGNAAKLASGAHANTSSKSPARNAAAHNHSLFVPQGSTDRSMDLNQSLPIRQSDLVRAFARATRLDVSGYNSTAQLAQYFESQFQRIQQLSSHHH

HEK293 [3] = test: cells; type: functional, cell-based; settings: Homo sapiens
[4] = biological target: T2, Zinc finger protein mex-5 (Caenorhabditis elegans, UniProt Q9XUB2); test: MEX-5/TCR-2 RNA interaction inhibitors, dose response, biochemical, C. elegans, fluorescence polarization (AID 1960)
T2 sequence (Q9XUB2 whole entry): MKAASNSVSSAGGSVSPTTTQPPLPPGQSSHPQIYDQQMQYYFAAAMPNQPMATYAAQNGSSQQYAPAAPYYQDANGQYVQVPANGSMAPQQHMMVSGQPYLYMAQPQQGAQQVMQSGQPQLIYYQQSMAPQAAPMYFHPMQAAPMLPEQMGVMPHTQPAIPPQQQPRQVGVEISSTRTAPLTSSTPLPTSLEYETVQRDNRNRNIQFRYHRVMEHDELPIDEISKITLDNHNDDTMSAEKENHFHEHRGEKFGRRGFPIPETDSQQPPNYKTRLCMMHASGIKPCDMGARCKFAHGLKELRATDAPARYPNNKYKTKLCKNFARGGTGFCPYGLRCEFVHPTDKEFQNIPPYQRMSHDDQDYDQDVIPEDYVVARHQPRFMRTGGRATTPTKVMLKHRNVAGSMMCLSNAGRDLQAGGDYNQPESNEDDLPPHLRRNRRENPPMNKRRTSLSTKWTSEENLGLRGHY

HEK293 [5] = test: cells; type: functional, cell-based; settings: Homo sapiens; remark: listed apart in the source
HEK293 [6] = test: NOD2 signaling inhibitors in MDP-stimulated cells, cell-based, uHTS, luminescence (AID 2001); type: functional; settings: Homo sapiens
[7] = biological target: SWI/SNF-related matrix-associated actin-dependent regulator of chromatin subfamily A member 2 (Homo sapiens, UniProt P51531); test: Luminescence-based cell-based high throughput dose response assay to identify activators of the function of SWI/SNF related, matrix associated, actin dependent regulator of chromatin, subfamily a, member 2 (SMARCA2, BRM).; type: functional
[8] = Counterscreen for activators of the function of SWI/SNF related, matrix associated, actin dependent regulator of chromatin, subfamily a, member 2 (SMARCA2, BRM): Luminescence-based cell-based high throughput dose response assay to identify non-selective compounds using the VP16 reporter assay.; type: functional
HeLa = test: HeLa cell cytotoxicity, dose response, cytotoxicity control for MITF activator project, CellTiter-Glo luminescence, cherry-pick samples (AID 540259); type: functional, cell-based; settings: Homo sapiens
Coagulation factor XII = biological target: T3, Coagulation factor XII (Homo sapiens, UniProt P00748); type: functional;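 further: activated factor XIIa alpha cleaving a fluorogenic AMC peptide substrate; inhibitor potency from loss of enzyme activity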
T3 sequence (P00748 whole entry): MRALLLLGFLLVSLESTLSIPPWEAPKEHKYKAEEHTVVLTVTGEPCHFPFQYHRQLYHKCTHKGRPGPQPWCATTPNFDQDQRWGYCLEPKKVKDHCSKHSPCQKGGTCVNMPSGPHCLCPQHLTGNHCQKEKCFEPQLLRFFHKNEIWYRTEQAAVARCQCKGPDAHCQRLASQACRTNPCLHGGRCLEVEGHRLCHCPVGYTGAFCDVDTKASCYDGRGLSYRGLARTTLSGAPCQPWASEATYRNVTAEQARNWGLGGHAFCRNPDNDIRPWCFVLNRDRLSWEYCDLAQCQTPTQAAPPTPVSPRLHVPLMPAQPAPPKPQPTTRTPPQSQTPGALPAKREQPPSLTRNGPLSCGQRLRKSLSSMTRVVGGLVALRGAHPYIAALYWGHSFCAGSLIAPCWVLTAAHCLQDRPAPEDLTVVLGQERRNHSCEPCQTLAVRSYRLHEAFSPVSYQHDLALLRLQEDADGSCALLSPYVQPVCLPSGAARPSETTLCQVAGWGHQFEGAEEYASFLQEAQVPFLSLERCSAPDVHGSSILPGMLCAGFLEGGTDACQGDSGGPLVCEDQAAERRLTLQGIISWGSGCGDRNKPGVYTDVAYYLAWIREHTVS

Cytochrome P450 2D6 = Cytochrome P450 2D6 (Homo sapiens, UniProt P10635);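 further: CYP2D6 member of a cytochrome P450 panel assay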
Cytochrome P450 1A2 = biological target: T4, Cytochrome P450 1A2 (Homo sapiens, UniProt P05177);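 further: PubChem cytochrome P450 panel assay, CYP1A2 panel member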
T4 sequence (P05177 whole entry): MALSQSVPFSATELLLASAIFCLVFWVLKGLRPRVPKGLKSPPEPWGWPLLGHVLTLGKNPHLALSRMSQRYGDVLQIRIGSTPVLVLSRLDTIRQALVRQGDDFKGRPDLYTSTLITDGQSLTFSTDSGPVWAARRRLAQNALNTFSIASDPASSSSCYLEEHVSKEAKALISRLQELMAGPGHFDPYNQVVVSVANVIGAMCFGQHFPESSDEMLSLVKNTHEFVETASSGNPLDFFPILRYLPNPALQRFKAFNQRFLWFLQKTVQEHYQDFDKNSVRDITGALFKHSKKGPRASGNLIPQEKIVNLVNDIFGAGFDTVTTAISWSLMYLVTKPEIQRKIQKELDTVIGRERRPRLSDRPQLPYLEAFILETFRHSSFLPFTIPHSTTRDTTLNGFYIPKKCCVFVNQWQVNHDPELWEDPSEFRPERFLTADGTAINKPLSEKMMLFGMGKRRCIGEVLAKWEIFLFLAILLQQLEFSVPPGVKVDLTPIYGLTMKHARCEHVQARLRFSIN

Cytochrome P450 3A4 = Cytochrome P450 3A4 (Homo sapiens, UniProt P08684);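 further: CYP3A4 tested as one member of a cytochrome P450 panel screen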
Cytochrome P450 2C9 = Cytochrome P450 2C9 (Homo sapiens, UniProt P11712)
HEK293 [9] = test: inhibitors of LMP1-driven NF-kB reporter, dose response, cell-based, HEK293, luciferase, cherry-pick (AID 588343); type: functional; settings: Homo sapiens
[10] = inhibitors of HIV Env-driven cell fusion, dose response, cherry-pick (AID 652057); type: functional, cell-based
[11] = CEM21 lymphoblast cell cytotoxicity, dose response, cytotoxicity control for viral fusion inhibitor project, CellTiter-Glo luminescence, cherry-picked (AID 652042); type: functional, cell-based;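 further: potency for signal decrease meaning cytotoxicity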
[12] = inhibitors of clade B AD8 Env fusion, dose response, cell-based, cherry-pick (AID 652062); type: functional;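 further: luciferase signal from cell-cell fusion driven by HIV-1 clade B AD8 Env; potency is for inhibitors of fusion seen as a drop in luminescence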
[13] = P. falciparum Dd2 growth inhibitors, dose response, SYBR Green, cherry-picked samples (AID 1159567); type: functional, cell-based
[14] = Shn3 3'UTR reporter inhibitors, dose response, cell-based, Clone20 osteoblasts, firefly luciferase, cherry-picked (AID 624132); type: functional;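 further: firefly luciferase luminescence from reporter carrying the Shn3 3'UTR in osteoblasts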
[15] = HepG2 cell cytotoxicity, dose response, cytotoxicity control for Shn3 inhibitor project, CellTiter-Glo, cherry-picked (AID 624134); type: functional, cell-based
[16] = control 3'UTR Renilla luciferase suppression, dose response, counter-screen for Shn3 inhibitor project, cell-based, Clone20-Shn3RL, cherry-picked (AID 624133); type: functional

SWI/SNF-related matrix-associated actin-dependent regulator of chromatin subfamily A member 2, sequence (P51531 whole entry): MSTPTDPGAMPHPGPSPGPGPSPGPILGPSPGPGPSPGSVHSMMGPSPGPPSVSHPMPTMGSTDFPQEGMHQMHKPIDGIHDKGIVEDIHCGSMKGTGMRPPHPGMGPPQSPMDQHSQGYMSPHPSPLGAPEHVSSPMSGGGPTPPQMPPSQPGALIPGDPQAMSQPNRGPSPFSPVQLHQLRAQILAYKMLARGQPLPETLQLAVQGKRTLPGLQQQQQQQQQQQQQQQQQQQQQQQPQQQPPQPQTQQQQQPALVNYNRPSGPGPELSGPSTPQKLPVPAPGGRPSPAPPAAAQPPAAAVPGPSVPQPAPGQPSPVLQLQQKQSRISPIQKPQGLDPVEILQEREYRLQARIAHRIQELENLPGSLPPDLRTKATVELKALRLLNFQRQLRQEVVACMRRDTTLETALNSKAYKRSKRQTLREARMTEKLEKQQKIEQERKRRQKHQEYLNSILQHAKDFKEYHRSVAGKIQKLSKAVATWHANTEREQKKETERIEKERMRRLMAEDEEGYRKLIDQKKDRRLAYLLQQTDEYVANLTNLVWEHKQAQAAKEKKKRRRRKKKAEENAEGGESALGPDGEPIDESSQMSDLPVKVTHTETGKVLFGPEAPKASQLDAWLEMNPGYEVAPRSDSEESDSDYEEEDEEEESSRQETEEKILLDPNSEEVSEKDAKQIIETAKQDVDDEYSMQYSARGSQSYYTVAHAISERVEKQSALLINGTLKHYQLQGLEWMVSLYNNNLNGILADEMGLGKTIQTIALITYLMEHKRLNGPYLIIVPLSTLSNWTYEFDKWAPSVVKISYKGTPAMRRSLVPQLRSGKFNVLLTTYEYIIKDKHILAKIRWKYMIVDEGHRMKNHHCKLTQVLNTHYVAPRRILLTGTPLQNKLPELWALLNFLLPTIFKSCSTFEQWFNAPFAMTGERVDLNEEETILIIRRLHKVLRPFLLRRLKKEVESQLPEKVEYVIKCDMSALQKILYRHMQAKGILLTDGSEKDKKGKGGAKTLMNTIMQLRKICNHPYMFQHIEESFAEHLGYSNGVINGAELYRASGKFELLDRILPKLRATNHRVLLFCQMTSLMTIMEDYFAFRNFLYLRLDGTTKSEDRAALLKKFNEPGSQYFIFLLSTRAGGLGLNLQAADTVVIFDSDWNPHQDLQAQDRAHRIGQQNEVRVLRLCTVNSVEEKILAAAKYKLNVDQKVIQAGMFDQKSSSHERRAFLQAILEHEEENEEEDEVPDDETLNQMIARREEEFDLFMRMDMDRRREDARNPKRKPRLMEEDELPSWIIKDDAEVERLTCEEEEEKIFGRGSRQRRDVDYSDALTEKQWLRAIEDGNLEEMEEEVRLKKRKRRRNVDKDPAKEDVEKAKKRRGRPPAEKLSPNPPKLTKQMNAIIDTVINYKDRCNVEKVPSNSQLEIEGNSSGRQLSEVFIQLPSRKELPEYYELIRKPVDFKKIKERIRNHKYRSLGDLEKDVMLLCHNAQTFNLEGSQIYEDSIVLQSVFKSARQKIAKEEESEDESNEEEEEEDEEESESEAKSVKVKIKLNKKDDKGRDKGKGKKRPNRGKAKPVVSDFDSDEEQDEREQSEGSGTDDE
Cytochrome P450 2C9, sequence (P11712 whole entry): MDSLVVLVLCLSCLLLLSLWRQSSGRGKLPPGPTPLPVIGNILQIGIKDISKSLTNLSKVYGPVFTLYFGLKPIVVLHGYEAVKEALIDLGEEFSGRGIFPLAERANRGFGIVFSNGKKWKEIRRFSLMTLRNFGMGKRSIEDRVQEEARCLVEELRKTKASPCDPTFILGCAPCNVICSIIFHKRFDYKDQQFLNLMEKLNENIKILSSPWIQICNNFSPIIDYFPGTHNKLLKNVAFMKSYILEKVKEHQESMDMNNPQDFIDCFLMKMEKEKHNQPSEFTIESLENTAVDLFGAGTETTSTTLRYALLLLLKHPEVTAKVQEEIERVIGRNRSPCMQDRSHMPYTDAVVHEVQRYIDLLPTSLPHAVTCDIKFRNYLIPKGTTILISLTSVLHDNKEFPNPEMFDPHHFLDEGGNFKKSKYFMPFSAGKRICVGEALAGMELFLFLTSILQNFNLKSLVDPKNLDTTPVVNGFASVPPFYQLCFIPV
Cytochrome P450 3A4, sequence (P08684 whole entry): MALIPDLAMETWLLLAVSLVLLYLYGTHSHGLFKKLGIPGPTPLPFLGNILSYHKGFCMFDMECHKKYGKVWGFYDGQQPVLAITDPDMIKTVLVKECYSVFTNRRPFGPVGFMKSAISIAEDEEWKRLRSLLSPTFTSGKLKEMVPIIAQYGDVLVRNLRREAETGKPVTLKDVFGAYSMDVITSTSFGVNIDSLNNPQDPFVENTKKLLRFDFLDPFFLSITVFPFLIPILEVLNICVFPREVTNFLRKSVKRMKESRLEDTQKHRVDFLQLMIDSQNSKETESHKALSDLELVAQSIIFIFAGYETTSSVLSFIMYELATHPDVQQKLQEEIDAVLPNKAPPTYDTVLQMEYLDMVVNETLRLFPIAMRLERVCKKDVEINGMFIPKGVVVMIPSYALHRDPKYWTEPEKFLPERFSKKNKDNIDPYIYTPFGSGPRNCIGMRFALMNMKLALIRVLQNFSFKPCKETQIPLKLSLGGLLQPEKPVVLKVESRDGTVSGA
Cytochrome P450 2D6, sequence (P10635 whole entry): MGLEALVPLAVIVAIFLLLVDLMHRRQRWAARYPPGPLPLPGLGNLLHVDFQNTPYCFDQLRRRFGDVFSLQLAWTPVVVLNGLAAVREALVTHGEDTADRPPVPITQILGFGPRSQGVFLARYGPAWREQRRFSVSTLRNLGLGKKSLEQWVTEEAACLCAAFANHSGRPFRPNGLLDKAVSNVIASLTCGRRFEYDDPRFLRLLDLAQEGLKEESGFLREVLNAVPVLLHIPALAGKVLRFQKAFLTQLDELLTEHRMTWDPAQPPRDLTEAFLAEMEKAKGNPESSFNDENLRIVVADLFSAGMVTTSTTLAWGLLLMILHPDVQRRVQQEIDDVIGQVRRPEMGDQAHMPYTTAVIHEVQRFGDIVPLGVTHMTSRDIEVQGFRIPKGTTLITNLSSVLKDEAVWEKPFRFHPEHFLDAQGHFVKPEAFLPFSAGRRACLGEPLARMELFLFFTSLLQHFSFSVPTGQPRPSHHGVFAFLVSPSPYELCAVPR

Compound: COc1ccc(/C=C/C(=O)c2c(C)cc(C)nc2O)c2ccccc12
EC50 (HEK293 [1]): 4.53 µM (active) | EC50 [2]: > 300 µM (not active) | IC50 (HEK293 [3]): 10.1 µM (active) | EC50 [4]: > 300 µM (not active) | IC50 (HEK293 [5]): > 20 µM (inactive) | IC50 (HEK293 [6]): 12.4 µM (inactive)

Compound: O=C(OCc1cc(=O)oc2cc(O)ccc12)c1cc(S(=O)(=O)N2CCOCC2)ccc1F
EC50 [7]: > 91.2 µM (inactive) | EC50 [8]: > 91.2 µM (inactive)

Compound: Nc1ccc2oc(=O)c3ccccc3c2c1
AC50 (HeLa): 178 µM (active)

IC50 (Coagulation factor XII): > 50 µM (inactive) | AC50 (Cytochrome P450 2D6): 3.16 µM (inconclusive) | AC50 (Cytochrome P450 1A2): 3.55 µM (inconclusive) | AC50 (Cytochrome P450 3A4): 8.91 µM (inconclusive) | AC50 (Cytochrome P450 2C9): 5.01 µM (inconclusive)
Compound: O=C(c1ccccc1)C1CN(c2ccccc2)CC1c1ccc(Cl)cc1 (configuration not stated)

Compound: O=C(NNC(S)=Nc1ccc(F)cc1F)c1ccco1
EC50 [7]: > 91.2 µM (inactive) | EC50 [8]: > 91.2 µM (inactive)

Compound: CC(=NNC(=S)Nc1ccccc1)c1ccccn1
AC50 (HEK293 [9]): 0.0995 µM (active)

Compound: CC(C)[C@H](N)C(=O)N[C@H]1CCC2C3CC=C4C[C@@H](O)CC[C@]4(C)C3CC[C@@]21C (some centres not stated)
EC50 [7]: > 91.2 µM (inactive) | EC50 [8]: > 91.2 µM (inactive)

Compound: C[C@H]1CN([C@@H](C)CO)C(=O)c2c(c3ccccc3n2C)-c2ccccc2CO[C@@H]1CN(C)C(=O)Cc1ccccc1
AC50 [10]: < 0.26 µM (active) | AC50 [11]: 27.4 µM (active) | AC50 [12]: < 0.26 µM (active) | AC50 [13]: 3.45 µM (active)

Compound: CCCC(=O)NC(c1cccc([N+](=O)[O-])c1)c1ccc2cccnc2c1O (configuration not stated)
AC50 (HEK293 [9]): 4.48 µM (active) | AC50 [14]: 1.75 µM (active) | AC50 [15]: 4.25 µM (active) | AC50 [16]: 3.55 µM (active)
